row,melting point,SMILES
1,137 to 138 °C,"COc1cc(COc2nn(-c3ccccc3)cc2/C=C/c2cnco2)ccc1OCc1nc(-c2ccco2)oc1C [Example 114, 2-(2-furyl)-4-({2-methoxy-4-[({4-[(E)-2-(1,3-oxazol-5-yl)ethenyl]-1-phenyl-1H-pyrazol-3-yl}oxy)methyl]phenoxy}methyl)-5-methyl-1,3-oxazole]"
2,172 to 173 °C,"CCCc1nnc(/C=C/c2cn(-c3ccccc3)nc2OCc2ccc(OCc3nc(-c4ccco4)oc3C)c(OC)c2)o1 [Example 115, 2-((E)-2-{3-[(4-{[2-(2-furyl)-5-methyl-1,3-oxazol-4-yl]methoxy}-3-methoxybenzyl)oxy]-1-phenyl-1H-pyrazol-4-yl}ethenyl)-5-propyl-1,3,4-oxadiazole]"
3,162 to 163 °C,"COc1cc(COc2nn(-c3ccccc3)cc2/C=C/c2nnco2)ccc1OCc1nc(-c2ccco2)oc1C [Example 118, 2-((E)-2-{3-[(4-{[2-(2-furyl)-5-methyl-1,3-oxazol-4-yl]methoxy}-3-methoxybenzyl)oxy]-1-phenyl-1H-pyrazol-4-yl}ethenyl)-1,3,4-oxadiazole]"
4,127 to 128 °C,"COc1cc(COc2nn(-c3ccccc3)cc2CCc2cscn2)ccc1OCc1nc(-c2ccco2)oc1C [Example 119, 2-(2-furyl)-4-({2-methoxy-4-[({1-phenyl-4-[2-(1,3-thiazol-4-yl)ethyl]-1H-pyrazol-3-yl}oxy)methyl]phenoxy}methyl)-5-methyl-1,3-oxazole]"
5,102 to 103 °C,"CCCc1nnc(Cc2cn(-c3ccccc3)nc2OCc2ccc(OCc3nc(-c4ccco4)oc3C)c(OC)c2)o1 [Example 120, 2-({3-[(4-{[2-(2-furyl)-5-methyl-1,3-oxazol-4-yl]methoxy}-3-methoxybenzyl)oxy]-1-phenyl-1H-pyrazol-4-yl}methyl)-5-propyl-1,3,4-oxadiazole]"
6,95 to 96 °C,"COc1cc(COc2nn(-c3ccccc3)cc2CC2=NCCO2)ccc1OCc1nc(-c2ccco2)oc1C [Example 121, 4-{[4-({[4-(4,5-dihydro-1,3-oxazol-2-ylmethyl)-1-phenyl-1H-pyrazol-3-yl]oxy}methyl)-2-methoxyphenoxy]methyl}-2-(2-furyl)-5-methyl-1,3-oxazole]"
7,149 to 150 °C,"COc1cc(COc2nn(-c3ccccc3)cc2Cn2cncn2)ccc1OCc1nc(-c2ccco2)oc1C [Example 122, 1-({3-[(4-{[2-(2-furyl)-5-methyl-1,3-oxazol-4-yl]methoxy}-3-methoxybenzyl)oxy]-1-phenyl-1H-pyrazol-4-yl}methyl)-1H-1,2,4-triazole]"
8,85 to 86 °C,"CCCc1nnc(CCc2cc(OCc3ccc(OCc4nc(-c5ccccc5)oc4C)c(OC)c3)nn2-c2ccccc2)o1 [Example 123, 2-{2-[3-({3-methoxy-4-[(5-methyl-2-phenyl-1,3-oxazol-4-yl)methoxy]benzyl}oxy)-1-phenyl-1H-pyrazol-5-yl]ethyl}-5-propyl-1,3,4-oxadiazole]"
9,192 to 193 °C,"CCCc1noc(/C=C/c2cn(-c3ccccc3)nc2OCc2ccc(OCc3nc(-c4ccco4)oc3C)c(OC)c2)n1 [Example 124, 5-((E)-2-{3-[(4-{[2-(2-furyl)-5-methyl-1,3-oxazol-4-yl]methoxy}-3-methoxybenzyl)oxy]-1-phenyl-1H-pyrazol-4-yl}ethenyl)-3-propyl-1,2,4-oxadiazole]"
10,186 to 187 °C,"COc1cc(COc2nn(-c3ccccc3)cc2/C=C/c2nnc(C)o2)ccc1OCc1nc(-c2ccco2)oc1C [Example 125, 2-((E)-2-{3-[(4-{[2-(2-furyl)-5-methyl-1,3-oxazol-4-yl]methoxy}-3-methoxybenzyl)oxy]-1-phenyl-1H-pyrazol-4-yl}ethenyl)-5-methyl-1,3,4-oxadiazole]"
11,183 to 184 °C,"CCc1nnc(/C=C/c2cn(-c3ccccc3)nc2OCc2ccc(OCc3nc(-c4ccco4)oc3C)c(OC)c2)o1 [Example 126, 2-ethyl-5-((E)-2-{3-[(4-{[2-(2-furyl)-5-methyl-1,3-oxazol-4-yl]methoxy}-3-methoxybenzyl)oxy]-1-phenyl-1H-pyrazol-4-yl}ethenyl)-1,3,4-oxadiazole]"
12,165 to 166 °C,"CCCc1nnc(/C=C/c2cn(-c3ccccc3)nc2OCc2ccc(OCc3nc(-c4ccco4)oc3C)c(OC)c2)o1 [Example 127, 2-((E)-2-{3-[(4-{[2-(2-furyl)-5-methyl-1,3-oxazol-4-yl]methoxy}-3-methoxybenzyl)oxy]-1-phenyl-1H-pyrazol-4-yl}ethenyl)-5-propyl-1,3,4-oxadiazole]"
13,156 to 157 °C,"COc1cc(COc2nn(-c3ccccc3)cc2/C=C/[S+](C)[O-])ccc1OCc1nc(-c2ccco2)oc1C (stereo not drawn) [Example 128 (E form), 2-(2-furyl)-4-({2-methoxy-4-[({4-[(E)-2-(methylsulfinyl)ethenyl]-1-phenyl-1H-pyrazol-3-yl}oxy)methyl]phenoxy}methyl)-5-methyl-1,3-oxazole]"
14,180 to 181 °C,"COc1cc(COc2nn(-c3ccccc3)cc2/C=C\[S+](C)[O-])ccc1OCc1nc(-c2ccco2)oc1C (stereo not drawn) [Example 128 (Z form), 2-(2-furyl)-4-({2-methoxy-4-[({4-[(Z)-2-(methylsulfinyl)ethenyl]-1-phenyl-1H-pyrazol-3-yl}oxy)methyl]phenoxy}methyl)-5-methyl-1,3-oxazole]"
15,152 to 153 °C,"COc1cc(COc2nn(-c3ccccc3)cc2/C=C/S(C)(=O)=O)ccc1OCc1nc(-c2ccco2)oc1C [Example 130, 2-(2-furyl)-4-({2-methoxy-4-[({4-[(E)-2-(methylsulfonyl)ethenyl]-1-phenyl-1H-pyrazol-3-yl}oxy)methyl]phenoxy}methyl)-5-methyl-1,3-oxazole]"
16,158 to 159 °C,"COc1cc(COc2nn(-c3ccccc3)cc2/C=C\S(C)(=O)=O)ccc1OCc1nc(-c2ccco2)oc1C [Example 131, 2-(2-furyl)-4-({2-methoxy-4-[({4-[(Z)-2-(methylsulfonyl)ethenyl]-1-phenyl-1H-pyrazol-3-yl}oxy)methyl]phenoxy}methyl)-5-methyl-1,3-oxazole]"
17,146 to 147 °C,"CCCc1nnc(/C=C/c2cn(Cc3ccccc3)nc2OCc2ccc(OCc3nc(-c4ccco4)oc3C)c(OC)c2)o1 [Example 132, 2-((E)-2-{1-benzyl-3-[(4-{[2-(2-furyl)-5-methyl-1,3-oxazol-4-yl]methoxy}-3-methoxybenzyl)oxy]-1H-pyrazol-4-yl}ethenyl)-5-propyl-1,3,4-oxadiazole]"
18,119 to 120 °C,"CCCc1nnc(/C=C/c2nc(-c3ccccc3)oc2COc2ccc(OCc3nc(-c4ccccc4)oc3C)cc2)o1 [Example 133, 2-{(E)-2-[5-({4-[(5-methyl-2-phenyl-1,3-oxazol-4-yl)methoxy]phenoxy}methyl)-2-phenyl-1,3-oxazol-4-yl]ethenyl}-5-propyl-1,3,4-oxadiazole]"
19,127 to 128 °C,"CCOC(=O)/C=C/c1cc(OCc2ccc(OCc3nc(-c4ccco4)oc3C)c(OC)c2)nn1-c1ccccc1 [Example 135, ethyl (2E)-3-{3-[(4-{[2-(2-furyl)-5-methyl-1,3-oxazol-4-yl]methoxy}-3-methoxybenzyl)oxy]-1-phenyl-1H-pyrazol-5-yl}-2-propenoate]"
20,191 to 192 °C,"COc1cc(COc2cc(/C=C/C(=O)O)n(-c3ccccc3)n2)ccc1OCc1nc(-c2ccco2)oc1C [Example 136, (2E)-3-{3-[(4-{[2-(2-furyl)-5-methyl-1,3-oxazol-4-yl]methoxy}-3-methoxybenzyl)oxy]-1-phenyl-1H-pyrazol-5-yl}-2-propenoic acid]"
21,107 to 108 °C,"CCCc1nnc(/C=C/c2cc(OCc3ccc(OCc4nc(-c5ccco5)oc4C)c(OC)c3)nn2-c2ccccc2)o1 [Example 138, 2-((E)-2-{3-[(4-{[2-(2-furyl)-5-methyl-1,3-oxazol-4-yl]methoxy}-3-methoxybenzyl)oxy]-1-phenyl-1H-pyrazol-5-yl}ethenyl)-5-propyl-1,3,4-oxadiazole]"
22,154 to 155 °C,"COc1cc(COc2cc(/C=C/c3cscn3)n(-c3ccccc3)n2)ccc1OCc1nc(-c2ccco2)oc1C [Example 139, 2-(2-furyl)-4-({2-methoxy-4-[({1-phenyl-5-[(E)-2-(1,3-thiazol-4-yl)ethenyl]-1H-pyrazol-3-yl}oxy)methyl]phenoxy}methyl)-5-methyl-1,3-oxazole]"
23,122 to 123 °C,"COc1cc(COc2cc(/C=C/c3ccccn3)n(-c3ccccc3)n2)ccc1OCc1nc(-c2ccco2)oc1C [Example 140, 2-((E)-2-{3-[(4-{[2-(2-furyl)-5-methyl-1,3-oxazol-4-yl]methoxy}-3-methoxybenzyl)oxy]-1-phenyl-1H-pyrazol-5-yl}ethenyl)pyridine]"
24,104 to 105 °C,"COc1cc(COc2cc(CCc3ccccn3)n(-c3ccccc3)n2)ccc1OCc1nc(-c2ccco2)oc1C [Example 141, 2-(2-{3-[(4-{[2-(2-furyl)-5-methyl-1,3-oxazol-4-yl]methoxy}-3-methoxybenzyl)oxy]-1-phenyl-1H-pyrazol-5-yl}ethyl)pyridine]"
25,95 to 96 °C,"COc1cc(COc2cc(Cn3cncn3)n(-c3ccccc3)n2)ccc1OCc1nc(-c2ccco2)oc1C [Example 143, 1-({3-[(4-{[2-(2-furyl)-5-methyl-1,3-oxazol-4-yl]methoxy}-3-methoxybenzyl)oxy]-1-phenyl-1H-pyrazol-5-yl}methyl)-1H-1,2,4-triazole]"
26,164 to 165 °C,"COc1cc(COc2nn(-c3ccccc3)cc2/C=C\c2csc(C)n2)ccc1OCc1nc(-c2ccco2)oc1C [Example 150 (Z form), 2-(2-furyl)-4-({2-methoxy-4-[({4-[(Z)-2-(2-methyl-1,3-thiazol-4-yl)ethenyl]-1-phenyl-1H-pyrazol-3-yl}oxy)methyl]phenoxy}methyl)-5-methyl-1,3-oxazole]"
27,108 to 109 °C,"CCc1nc(/C=C/c2cn(-c3ccccc3)nc2OCc2ccc(OCc3nc(-c4ccco4)oc3C)c(OC)c2)cs1 [Example 152 (E form), 4-({4-[({4-[(E)-2-(2-ethyl-1,3-thiazol-4-yl)ethenyl]-1-phenyl-1H-pyrazol-3-yl}oxy)methyl]-2-methoxyphenoxy}methyl)-2-(2-furyl)-5-methyl-1,3-oxazole]"

# Reference: patent US7368578B2, “Five-membered heterocyclic compounds” (Takeda Pharmaceutical Company Limited, priority 2002, dated 2008)
